Measured values as given in PubChem BioAssay AID1845216 (Molecular Pharmacology Branch, DTP, NCI, 2023).

Tested on: SW 982 tumor spheroid viability
Assay: Anticancer human tumor SW 982 cell line growth inhibition;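 also: spheroids exposed to compound for 7 days before readout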
Details: spheroids with HUVEC and MSC; for IC50: curve of first compound; for viability, T/C: stronger effect = lower value
How it was run: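 Complex spheroids of malignant cells with endothelial cells and mesenchymal stem cells; agents alone or combined, from near clinical Cmax (or 10 microM if unknown) down in half-log steps, 0.25% DMSO final.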

[1] = second compound 0.003 µM, first compound 0.0316 µM
[2] = second compound 0.003 µM, first compound 0.1 µM
[3] = second compound 0.003 µM, first compound 0.316 µM
[4] = second compound 0.003 µM, first compound 1 µM
[5] = second compound 0.003 µM, first compound 3.16 µM
[6] = second compound 0.003 µM, first compound 10 µM
[7] = second compound 0.00949 µM, first compound 0.0316 µM
[8] = second compound 0.00949 µM, first compound 0.1 µM
[9] = second compound 0.00949 µM, first compound 0.316 µM
[10] = second compound 0.00949 µM, first compound 1 µM
[11] = second compound 0.00949 µM, first compound 3.16 µM
[12] = second compound 0.00949 µM, first compound 10 µM
[13] = second compound 0.03 µM, first compound 0.0316 µM
[14] = second compound 0.03 µM, first compound 0.1 µM
[15] = second compound 0.03 µM, first compound 0.316 µM
[16] = second compound 0.03 µM, first compound 1 µM
[17] = second compound 0.03 µM, first compound 3.16 µM
[18] = second compound 0.03 µM, first compound 10 µM
[19] = second compound 0.0949 µM, first compound 0.0316 µM
[20] = second compound 0.0949 µM, first compound 0.1 µM
[21] = second compound 0.0949 µM, first compound 0.316 µM
[22] = second compound 0.0949 µM, first compound 1 µM
[23] = second compound 0.0949 µM, first compound 3.16 µM
[24] = second compound 0.0949 µM, first compound 10 µM
[25] = second compound 0.3 µM, first compound 0.0316 µM
[26] = second compound 0.3 µM, first compound 0.1 µM
[27] = second compound 0.3 µM, first compound 0.316 µM
[28] = second compound 0.3 µM, first compound 1 µM
[29] = second compound 0.3 µM, first compound 3.16 µM
[30] = second compound 0.3 µM, first compound 10 µM

Row | SMILES | IC50 (second compound 0.003 µM) | IC50 (second compound 0.00949 µM) | IC50 (second compound 0.03 µM) | IC50 (second compound 0.0949 µM) | IC50 (second compound 0.3 µM) | viability, T/C [1] | viability, T/C [2] | viability, T/C [3] | viability, T/C [4] | viability, T/C [5] | viability, T/C [6] | viability, T/C [7] | viability, T/C [8] | viability, T/C [9] | viability, T/C [10] | viability, T/C [11] | viability, T/C [12] | viability, T/C [13] | viability, T/C [14] | viability, T/C [15] | also measured
1 | CC1COCCN1c1cc(-c2ccnn2C)c2ccnc(-c3ccn[nH]3)c2n1 (stereo not given) + CC[C@@]1(O)C(=O)OCc2c1cc1n(c2=O)Cc2cc3c(CN(C)C)c(O)ccc3nc2-1 | < 0.0316 µM | < 0.0316 µM | < 0.0316 µM | < 0.0316 µM | < 0.0316 µM | 24.8% | 17.2% | 12.2% | 7.73% | 9.86% | 13.6% | 16.3% | 14.9% | 10.3% | 8.21% | 9.89% | 12.6% | 18.2% | 10.3% | 8.15% | viability, T/C [16]: 7.1%; viability, T/C [17]: 10.2%; viability, T/C [18]: 13.3%; viability, T/C [19]: 12.1%; viability, T/C [20]: 11.4%; viability, T/C [21]: 9.49%; viability, T/C [22]: 8.79%; viability, T/C [23]: 9.28%; viability, T/C [24]: 12%; viability, T/C [25]: 12.1%; viability, T/C [26]: 8.63%; viability, T/C [27]: 7.14%; viability, T/C [28]: 6.54%; viability, T/C [29]: 7.28%; viability, T/C [30]: 7.84%
2 | COc1cc(C)[nH]c(=O)c1CN1CCc2c(Cl)cc(C(OC)C3COC3)c(Cl)c2C1=O (stereo not given) + CC[C@@]1(O)C(=O)OCc2c1cc1n(c2=O)Cc2cc3c(CN(C)C)c(O)ccc3nc2-1 | > 10 µM | > 10 µM | > 10 µM | > 10 µM | < 0.0316 µM | 87.8% | 81.4% | 90.5% | 89.8% | 87.8% | 90.4% | 74.8% | 77.3% | 75.1% | 79.4% | 82.7% | 83% | 77.7% | 66.8% | 70.8% | viability, T/C [16]: 75.8%; viability, T/C [17]: 69%; viability, T/C [18]: 72.5%; viability, T/C [19]: 58.2%; viability, T/C [20]: 56%; viability, T/C [21]: 65%; viability, T/C [22]: 63%; viability, T/C [23]: 66%; viability, T/C [24]: 76.5%; viability, T/C [25]: 49.4%; viability, T/C [26]: 47.2%; viability, T/C [27]: 42.9%; viability, T/C [28]: 41.2%; viability, T/C [29]: 48.2%; viability, T/C [30]: 52.4%
3 | Cc1cc(C)c(CNC(=O)c2cc(-c3ccc(CN4CCOCC4)cc3)cc3c2cnn3C2CCCC2)c(=O)[nH]1 + CC[C@@]1(O)C(=O)OCc2c1cc1n(c2=O)Cc2cc3c(CN(C)C)c(O)ccc3nc2-1 | > 10 µM | > 10 µM | > 10 µM | > 10 µM | 3.03 µM | 96.8% | 102% | 103% | 90.4% | 85.9% | 61.6% | 96.1% | 86.6% | 86.5% | 85% | 83% | 63.3% | 97% | 88.7% | 101% | viability, T/C [16]: 83.4%; viability, T/C [17]: 86.2%; viability, T/C [18]: 62.9%; viability, T/C [19]: 87.7%; viability, T/C [20]: 87.4%; viability, T/C [21]: 85.2%; viability, T/C [22]: 89.6%; viability, T/C [23]: 75.6%; viability, T/C [24]: 61.7%; viability, T/C [25]: 63.7%; viability, T/C [26]: 57.3%; viability, T/C [27]: 54.7%; viability, T/C [28]: 55%; viability, T/C [29]: 52.3%; viability, T/C [30]: 39%
4 | [2H]c1nc(C)nc([2H])c1-c1cc(NC[C@@H](C)c2cccc3c(C(=O)NC)ccnc23)ncn1 + CC[C@@]1(O)C(=O)OCc2c1cc1n(c2=O)Cc2cc3c(CN(C)C)c(O)ccc3nc2-1 | > 10 µM | > 10 µM | > 10 µM | > 10 µM | > 10 µM | 90.1% | 97.5% | 103% | 104% | 101% | 101% | 89.1% | 89.4% | 89.2% | 95.2% | 82.1% | 78% | 77.4% | 78% | 83.7% | viability, T/C [16]: 84.8%; viability, T/C [17]: 95.4%; viability, T/C [18]: 81.8%; viability, T/C [19]: 69.7%; viability, T/C [20]: 72.5%; viability, T/C [21]: 76.5%; viability, T/C [22]: 70.9%; viability, T/C [23]: 84.5%; viability, T/C [24]: 73.5%; viability, T/C [25]: 58.2%; viability, T/C [26]: 55.4%; viability, T/C [27]: 54.3%; viability, T/C [28]: 62.5%; viability, T/C [29]: 45.1%; viability, T/C [30]: 52.1%
